Columns and labels:
[1] = target: T1, IKACh (Kir3.1 and Kir3.4 protein channels) (Homo sapiens, UniProt P48544+P48549); assay: Patch clamp block of IKACh current in transfected HEK 293 cells; format: cell-based; conditions: for percentage block of IKACh current (outward component): 1 μM drug, HEK 293 cells transfected with Kir3.1/Kir3.4, barium sensitive current, 5 minute superfusion; for percentage block of IKACh current (FIG. 5, Compound A experiments): same manner and cell lines, concentration not given
T1 construct: expressed in transfected cells; host or cells: HEK 293 (human embryonic kidney cells)
T1 sequence (P48549 1-501): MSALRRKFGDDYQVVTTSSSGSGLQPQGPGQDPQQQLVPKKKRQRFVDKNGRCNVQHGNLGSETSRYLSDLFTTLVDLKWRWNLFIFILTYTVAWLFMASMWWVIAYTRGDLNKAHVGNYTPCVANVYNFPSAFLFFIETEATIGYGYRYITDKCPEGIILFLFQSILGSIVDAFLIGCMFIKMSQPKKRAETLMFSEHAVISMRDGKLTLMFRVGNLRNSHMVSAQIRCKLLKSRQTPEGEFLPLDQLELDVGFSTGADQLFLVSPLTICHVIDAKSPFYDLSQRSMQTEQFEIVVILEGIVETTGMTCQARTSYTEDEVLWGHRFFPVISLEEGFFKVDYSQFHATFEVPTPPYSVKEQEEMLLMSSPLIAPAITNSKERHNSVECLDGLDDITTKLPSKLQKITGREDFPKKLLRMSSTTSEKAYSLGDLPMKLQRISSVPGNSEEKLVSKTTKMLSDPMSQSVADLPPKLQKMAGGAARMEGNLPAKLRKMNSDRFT
T1 sequence (P48544 1-419): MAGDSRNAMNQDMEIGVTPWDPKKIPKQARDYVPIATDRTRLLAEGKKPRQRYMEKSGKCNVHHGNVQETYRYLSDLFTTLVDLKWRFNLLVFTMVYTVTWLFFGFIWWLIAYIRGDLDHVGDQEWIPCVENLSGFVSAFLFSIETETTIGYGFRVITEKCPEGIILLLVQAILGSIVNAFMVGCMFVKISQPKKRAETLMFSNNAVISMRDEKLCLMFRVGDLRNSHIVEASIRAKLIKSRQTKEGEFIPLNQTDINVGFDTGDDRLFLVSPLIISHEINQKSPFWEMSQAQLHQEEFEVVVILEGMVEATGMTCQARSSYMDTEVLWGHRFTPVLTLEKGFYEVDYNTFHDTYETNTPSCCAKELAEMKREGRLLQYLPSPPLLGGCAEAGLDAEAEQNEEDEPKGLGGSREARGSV
Protocol: FIG. 1: In patch clamp experiments, IKACh was measured in human embryonic kidney cells (HEK 293) transfected with IKACh.
The boxed area is the physiologically important outward component of the IKACh current. A magnification is shown. […] The traces are the barium sensitive currents.

[2] = target: IKr (hERG protein channel) (Homo sapiens, UniProt Q12809); conditions: 5 min
Chain of IKr (hERG protein channel) (Q12809 whole entry): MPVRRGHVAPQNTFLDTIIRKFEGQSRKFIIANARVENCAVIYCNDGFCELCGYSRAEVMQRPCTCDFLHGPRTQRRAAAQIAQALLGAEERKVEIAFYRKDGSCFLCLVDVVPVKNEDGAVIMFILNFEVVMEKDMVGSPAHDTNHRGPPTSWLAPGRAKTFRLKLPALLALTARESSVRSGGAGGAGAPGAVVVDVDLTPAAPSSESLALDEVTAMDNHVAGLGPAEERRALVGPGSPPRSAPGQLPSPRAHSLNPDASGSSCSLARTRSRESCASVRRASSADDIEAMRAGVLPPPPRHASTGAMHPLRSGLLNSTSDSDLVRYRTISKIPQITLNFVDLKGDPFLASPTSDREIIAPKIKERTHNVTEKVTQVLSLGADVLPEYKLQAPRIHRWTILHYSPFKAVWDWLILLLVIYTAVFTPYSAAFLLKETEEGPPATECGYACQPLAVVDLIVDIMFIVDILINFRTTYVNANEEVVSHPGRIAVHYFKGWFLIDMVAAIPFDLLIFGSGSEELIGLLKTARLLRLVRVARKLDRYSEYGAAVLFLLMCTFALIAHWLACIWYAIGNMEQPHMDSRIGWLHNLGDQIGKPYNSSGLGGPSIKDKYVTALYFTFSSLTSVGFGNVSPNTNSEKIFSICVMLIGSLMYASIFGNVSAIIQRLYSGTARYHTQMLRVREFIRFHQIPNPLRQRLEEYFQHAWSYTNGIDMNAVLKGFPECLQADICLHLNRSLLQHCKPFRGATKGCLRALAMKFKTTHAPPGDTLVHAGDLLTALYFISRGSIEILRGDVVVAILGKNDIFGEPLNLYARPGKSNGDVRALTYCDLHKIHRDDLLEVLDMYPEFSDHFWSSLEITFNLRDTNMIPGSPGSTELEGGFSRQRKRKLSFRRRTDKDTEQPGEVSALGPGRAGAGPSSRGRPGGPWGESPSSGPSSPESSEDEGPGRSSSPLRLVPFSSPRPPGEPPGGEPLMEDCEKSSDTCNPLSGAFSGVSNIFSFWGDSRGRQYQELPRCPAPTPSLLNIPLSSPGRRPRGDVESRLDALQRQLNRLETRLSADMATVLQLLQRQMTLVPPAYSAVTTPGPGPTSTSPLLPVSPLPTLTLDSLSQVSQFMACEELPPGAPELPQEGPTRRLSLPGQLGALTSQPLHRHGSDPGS
Protocol: FIG. 2: IKr current was measured in Chinese hamster ovary cells (CHO) expressing the current.
The arrow denotes the tail current. Tail current is elicited by 3 second step voltage drop from +20 mV to −40 mV. The gray trace is the remaining current after total current block with E4031.
We used the conventional patch clamp method and human embryonic kidney cells transfected with Kir3.1 and Kir3.4 protein channels responsible for IKACh, or Chinese hamster ovary cells transfected with the hERG protein channel responsible for IKr. […] In order to elicit IKACh, the cells were subjected to a voltage protocol consisting of a 2 second ramp from −130 mV to 50 mV, from a holding potential of −40 mV. IKr tail current was elicited by a 3 second voltage drop step from 20 mV to −40 mV. The drugs were superfused over a 5 minute period into the chambers that hold the cells.

[3] = Compound A vs racemic chloroquine

Molecule	percentage block of IKACh current (outward component) [1]	percentage block of IKACh current (FIG. 5, Compound A experiments) [1, 3]	further results
CCN(CC)CCC[C@@H](C)Nc1ccnc2cc(Cl)ccc12 [(R)-chloroquine, reference compound]	less than 13%		percentage block of IKACh current (outward component) ([1]; listed as distomer (R)): 14%±9
CCN(CC)CCC[C@H](C)Nc1ccnc2cc(Cl)ccc12 [(S)-chloroquine]	more than 83%		percentage block of IKACh current (outward component) ([1]; listed as eutomer (S)): 83%±2
CCN(CC)CCC[C@H](Cc1ccccc1)Nc1ccnc2cc(Cl)ccc12 [Compound A]		110%±2.5	IKACh block relative to chloroquine, in words [1, 3]: significantly better blocker of IKACh; percentage block of IKr current (FIG. 5, Compound A experiments) [2]: 75%±5.7
chloroquine [racemic chloroquine, reference compound]		52%±11	

— US20170258781A1, “ATRIAL SPECIFIC ANTIARRHYTHMICS FOR USE IN TREATING OR PREVENTING ATRIAL FIBRILLATION” (Tufts Medical Center, Inc., priority 2014, published 2017)
